Laboratory results reported in ChEMBL document CHEMBL5260795, “Antifungal potential of marine natural products” (Eur J Med Chem, 2017).
In brackets after ≈: the same amount, converted by molar mass. Values belong to the molecule of their own block, whether it stands above or below them.

Assays:
Candida albicans [1] = test: Antifungal activity against Candida albicans ATCC76615 by atomatic microplate reader analysis; type: functional
Kluyveromyces marxianus [2] = test: Antifungal activity against clinical strain Candida pseudotropicalis by atomatic microplate reader analysis; type: functional
Candida parapsilosis = test: Antifungal activity against clinical strain Candida parapsilosis by atomatic microplate reader analysis; type: functional; details: Lodderomyces parapsilosis
Nannizzia gypsea [3] = test: Antifungal activity against Microsporum gypseum ATCC31388 by atomatic microplate reader analysis; type: functional
Candida albicans [4] = test: Antifungal activity against wild type Candida albicans; type: functional, organism-based
Candida albicans [5] = test: Antifungal activity against amphotericin-B-resistant Candida albicans; type: functional, organism-based
Lindra thalassiae = test: Antifungal activity against Lindra thalassiae; type: functional, organism-based; details: Lindriella thalassiae
Paradendryphiella salina = test: Antifungal activity against Dendry-phiella salina; type: functional, organism-based
Candida albicans [6] = test: Antimicrobial activity against Candida albicans assessed as inhibition of fungal growth; type: functional
Kluyveromyces marxianus [7] = test: Antifungal activity against Candida pseudotropicalis; type: functional
Trichophyton rubrum = test: Antifungal activity against Trichophyton rubrum; type: functional
Nannizzia gypsea [8] = test: Antifungal activity against Microsporum gypseum; type: functional
Cladosporium cucumerinum = test: Antifungal activity against Cladosporium cucumerinum assessed as zone of inhibition; type: functional

MIC (Candida albicans [1]): 3.4 µg/mL (≈ 2.75 µM)
MIC (Kluyveromyces marxianus [2]): 3.4 µg/mL (≈ 2.75 µM)
MIC (Candida parapsilosis): 3.4 µg/mL (≈ 2.75 µM)
MIC (Nannizzia gypsea [3]): 3.4 µg/mL (≈ 2.75 µM)
SMILES: CO[C@@H]1[C@@H](O)[C@H](O[C@@H]2[C@H](O)[C@H](O[C@H]3[C@H](O)[C@@H](O)[C@H](O[C@H]4[C@H](OC5CC[C@]6(C)C7=C(CC[C@H]6C5(C)C)[C@]5(C)CC[C@H]6[C@]5(CC7)C(=O)O[C@@]6(C)C[C@H](O)CC(C)C)OC[C@@H](O[C@@H]5O[C@H](CO)[C@@H](O)[C@H](O)[C@H]5O)[C@@H]4O)O[C@@H]3CO)OC[C@H]2O)O[C@H](CO)[C@H]1O (stereo partly drawn)

SMILES: CO[C@H]1C[C@H](CC[C@H](C)[C@H](O)[C@H](C)[C@H]2OC(=O)/C=C/C(C)=C/[C@@H](O)[C@H](OC)C[C@@H]3C=CC[C@@H](C[C@@H](OC)[C@@]4(CO4)[C@@H](OC)C[C@@H](OC)[C@@H]2C)O3)O[C@@H](C)C1
IC50 (Candida albicans [4]): 1.3 µg/mL (≈ 1.69 µM)
IC50 (Candida albicans [5]): 0.5 µg/mL (≈ 0.652 µM)
IC50 (Lindra thalassiae): 0.135 µg/mL (≈ 0.176 µM)
IC50 (Paradendryphiella salina): 0.034 µg/mL (≈ 0.0443 µM)

MIC (Candida albicans [6]): 1 µg/mL
MIC (Kluyveromyces marxianus [7]): 1 µg/mL
MIC (Trichophyton rubrum): 1 µg/mL
MIC (Nannizzia gypsea [8]): 1 µg/mL
SMILES: C=C(C)CCC[C@]1(C)OC(=O)[C@]23[C@@H](O)C=C4[C@@H](CC[C@H]5C(C)(C)[C@@H](O[C@@H]6OC[C@@H](OS(=O)(=O)[O-])[C@H](O)[C@H]6O[C@@H]6O[C@H](C)[C@@H](O[C@@H]7O[C@H](CO)[C@@H](O)[C@H](O[C@@H]8O[C@H](CO)[C@@H](O)[C@H](OC)[C@H]8O)[C@H]7O)[C@H](O)[C@H]6O)CC[C@]45C)[C@]2(C)CC[C@@]31O.[Na+]

SMILES: CO[C@@H]1[C@@H](O)[C@H](O[C@@H]2[C@@H](O)[C@H](O[C@H]3[C@H](O)[C@@H](O)[C@H](O[C@H]4[C@H](O[C@H]5CC[C@]6(C)C7C[C@H](O)[C@]89C(=O)O[C@@](C)(CCCC(C)C)[C@@]8(O)CC[C@@]9(C)C7=CC[C@H]6C5(C)C)OC[C@@H](OS(=O)(=O)[O-])[C@@H]4O)O[C@@H]3C)O[C@H](COS(=O)(=O)[O-])[C@H]2O)O[C@H](CO)[C@H]1O.[Na+].[Na+] (stereo partly drawn)
inhibition zone (IZ) (Cladosporium cucumerinum): 8 mm
